Source: patent US20240279232A1, “USE OF SUBSTITUTED 5-(4-METHYL-6-PHENYL-4H-BENZO[F]IMIDAZO[1,5-A][1,4] DIAZEPIN-3-YL)-1,2,4-O[…] THE TREATMENT OF INFLAMMATORY CONDITIONS” (priority 2021, published 2024)
Where two headings read alike, the source gives them in different places.

Columns and labels:
Mouse microglia [1] = assay: Cell viability (CellTiter-Glo), mouse microglia; type: cell-based; conditions: CellTiter-Glo
Procedure: (§1) Next, a library of GABAAR ligands was investigated to identify compounds that reduce the production of NO as a marker of anti-inflammatory activity. […] NO was quantified with a Greiss assay. Cell viability was determined with CellTiter-Glo.
(§2) Nitric oxide production (Griess assay) and viability assay (CellTiter-Glo). 80 μL of mouse microglia culture (1×10^6 cells/mL) was plated into sterile 384 well plates representing non-activated wells. The remaining culture was activated with 50 ng/ml LPS (Invivogen, NC9836) and 150 U/mL IFNγ (R&D Systems, 485MI100) and distributed into the 384 well plates. […] Assay plates were incubated for approximately 24 hours (unless otherwise noted) at 37° C., centrifuged, and 40 μL of supernatant transferred to a new plate for analysis using the Griess Assay (Promega, Madison, WI). Absorbance at 530 nm was measured using a TECAN Infinite M1000 plate reader. The remaining 40 μL containing cells was analyzed for toxicity by the CellTiter-Glo Assay (Promega, Madison, WI). Luminescence was read using a TECAN Infinite M1000 plate reader.

DOR (δ opioid receptor) = biological target: T1, DOR (δ opioid receptor) (Homo sapiens, UniProt P41143); assay: DOR radioligand binding ([3H]-DADLE, HEK293 cell homogenates); conditions: Percent inhibition at 10,000 nM; [3H]-DADLE
T1 construct: expressed in transfected cells; host or cells: HEK293
Procedure: (§3) Radioligand binding assays. Detailed protocols for the primary and secondary radioligand binding assays can be found in the National Institute of Mental Health's Psychoactive Drug Screening Program (NIMH PDSP) Assay Protocol Book (Roth, 2018). Briefly, primary and secondary radioligand binding assays are carried out in a final of volume of 125 μL per well in appropriate binding buffer. […] Total binding and nonspecific binding are determined in the absence and presence of 10 μM of appropriate reference compound (Naltrindole DOR, Salvinorin A KOR and DAMGO MOR). In brief, plates are usually incubated at room temperature and in the dark for 90 min. Reactions are stopped by vacuum filtration onto 0.3% polyethyleneimine (PEI) soaked 96-well filter mats using a 96-well Filtermate harvester, followed by three washes with cold PBS buffer. Scintillation cocktail is then melted onto the microwave-dried filters on a hot plate and radioactivity counted in a Microbeta counter. The data (n=6) were analyzed by nonlinear regression.
(§4) Ligand affinities were determined for KOR (κ opioid receptor), DOR (δ opioid receptor), and MOR (μ opioid receptor) using radioligand binding assays at a screening concentration of 10,000 nM. For these assays, cell homogenates from HEK293 cells that overexpressed KOR, MOR, and DOR were used in combination with [^3H]-U69593, [^3H]-DAMGO, and [^3H]-DADLE, respectively Compounds that exceeded more than 50% radioligand displacement were investigated further in concentration-dependent experiments to determine Ki values. Gamma aminobutyric acid type A receptor (GABAAR) binding was determined with rat brain homogenate and ^3H-flunitrazepam. Flunitrazepam binds GABAAR subtypes that consists of two α and two β subunits and one γ or δ subunit. Strong affinities to α1-3,5,6β1-3γ1-y/δ GABAARS have been reported for flunitrazepam. The […] GABAAR subtype expression in the brain includes 43% α1β2γ2, 15% α2β3γ2+8% α2βγ1, 10% α3β3γ2, 6% α4βγ/δ, 4% α5β3γ2, and 4% α6β2γ2/δ. Therefore, compounds with high affinity toward the synaptic benzodiazepine-sensitive receptors (BZR) predominately bind α1-3β2-3γ1-2 GABAARs. Alternatively, compounds with weak BZR binding might be selective for α4-6βγ/δ GABAARs.
(§5) Psychoactive Drug Screening Program. Detailed protocols for the primary and secondary radioligand binding assays can be found in the National Institute of Mental Health's Psychoactive Drug Screening Program (NIMH PDSP) Assay Protocol Book. Briefly, primary and secondary radioligand binding assays are carried out in a final of volume of 125 μL per well in appropriate binding buffer. The radioactive ligand concentration is close to the Kd. Total binding and nonspecific binding are determined in the absence and presence of 10 μM of appropriate reference compound, respectively. In brief, plates are usually incubated at room temperature and in the dark for 90 min. Reactions are stopped by vacuum filtration onto 0.3% polyethyleneimine (PEI) soaked 96-well filter mats using a 96-well Filtermate harvester, followed by three washes with cold PBS buffer. Scintillation cocktail is then melted onto the microwave-dried filters on a hot plate and radioactivity counted in a Microbeta counter. The data (n=6) were analyzed by nonlinear regression.

MOR (μ opioid receptor) = biological target: T2, MOR (μ opioid receptor) (Homo sapiens, UniProt P35372); assay: MOR radioligand binding ([3H]-DAMGO, HEK293 cell homogenates); conditions: Percent inhibition at 10,000 nM; [3H]-DAMGO
T2 construct: expressed in transfected cells; host or cells: HEK293
Procedure: as §3, §4, §5

[2] = system: BZR (benzodiazepine site of GABAAR); assay: GABAAR/BZR binding, rat brain homogenate with 3H-flunitrazepam; conditions: rat brain homogenate, 3H-flunitrazepam; for BZR %: Percent inhibition at 10,000 nM
Procedure: as §4, §5

Mouse microglia [3] = assay: NO production (Griess assay), LPS/IFNγ-activated mouse microglia; type: cell-based
Procedure: as §1
Cell culture. A) HMC3 Microglia (CRL-3304) were maintained in treated cell culture flasks (Nunc, 156472) with EMEM (Corning, 10010CV) supplemented with 10% heat-inactivated FBS (Corning, 35011CV) and 100 U/mL penicillin and 100 μg/mL streptomycin (Hyclone, SV30010). Cultures were maintained at 37° C. and 5% CO2. When cells reached a density of 7×10^4 cells/mL, cultures were passaged with 0.25% Trypsin (Corning, 25-053-CI) and resuspended to a density no lower than 10,000 cells/mL. B) Human and mouse microglia cell lines were a gift from Dr. David Alvarez-Carbonell at Case Western Reserve University (Cleveland, OH). Microglia were cultured in cell culture treated flasks (Nunc, 156472) with DME/F12 media (Hyclone, SH30023.01) supplemented with 10% heat-inactivated FBS (Corning, 35011CV), 100 U/mL penicillin/100 μg/mL streptomycin (Hyclone, SV30010), and Normocin (Invivogen, ant-nr). Cultures were maintained at 37° C. and 5% CO2. […] Cultures were maintained at 37° C. and 5% CO2. Cells were passaged when they reached a density of approximately 3×10^6 cells/mL using cell scrapers (VWR, 10062-906) to lift cells from flask surface and resuspended at densities of approximately 500,000 cells/mL.
as §2

KOR (κ opioid receptor) = biological target: T3, KOR (κ opioid receptor) (Homo sapiens, UniProt P41145); assay: KOR radioligand binding ([3H]-U69593, HEK293 cell homogenates); conditions: for inhibition at 10 µM: Percent inhibition at 10,000 nM
T3 construct: expressed in transfected cells; host or cells: HEK293 (stably transfected)
Procedure: as §3, §4, §5

[4] = concentration-dependent, [3H]-U69593, read-out: KOR (Ki)

T3 sequence (P41145 whole entry): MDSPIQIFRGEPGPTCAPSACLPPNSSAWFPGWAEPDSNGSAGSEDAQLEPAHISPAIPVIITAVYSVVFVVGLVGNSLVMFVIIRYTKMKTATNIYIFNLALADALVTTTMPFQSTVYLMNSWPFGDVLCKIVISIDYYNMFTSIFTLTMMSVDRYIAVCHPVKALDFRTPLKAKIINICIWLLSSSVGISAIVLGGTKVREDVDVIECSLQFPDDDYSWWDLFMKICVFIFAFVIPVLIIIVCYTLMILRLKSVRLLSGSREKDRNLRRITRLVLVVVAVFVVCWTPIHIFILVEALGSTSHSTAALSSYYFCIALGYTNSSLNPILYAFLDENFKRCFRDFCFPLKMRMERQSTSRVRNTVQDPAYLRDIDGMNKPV
T2 sequence (P35372 whole entry, species assumed): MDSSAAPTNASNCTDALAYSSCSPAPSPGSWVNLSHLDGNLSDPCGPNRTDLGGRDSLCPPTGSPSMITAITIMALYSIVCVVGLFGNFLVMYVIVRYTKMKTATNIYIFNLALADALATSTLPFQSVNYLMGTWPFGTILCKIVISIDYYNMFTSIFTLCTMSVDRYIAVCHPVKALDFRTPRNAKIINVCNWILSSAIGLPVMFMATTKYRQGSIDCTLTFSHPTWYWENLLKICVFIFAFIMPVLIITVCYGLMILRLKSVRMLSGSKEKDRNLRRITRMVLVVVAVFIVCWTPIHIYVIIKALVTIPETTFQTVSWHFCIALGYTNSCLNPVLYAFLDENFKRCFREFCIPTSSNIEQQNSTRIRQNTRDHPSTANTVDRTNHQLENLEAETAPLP
T1 sequence (P41143 whole entry): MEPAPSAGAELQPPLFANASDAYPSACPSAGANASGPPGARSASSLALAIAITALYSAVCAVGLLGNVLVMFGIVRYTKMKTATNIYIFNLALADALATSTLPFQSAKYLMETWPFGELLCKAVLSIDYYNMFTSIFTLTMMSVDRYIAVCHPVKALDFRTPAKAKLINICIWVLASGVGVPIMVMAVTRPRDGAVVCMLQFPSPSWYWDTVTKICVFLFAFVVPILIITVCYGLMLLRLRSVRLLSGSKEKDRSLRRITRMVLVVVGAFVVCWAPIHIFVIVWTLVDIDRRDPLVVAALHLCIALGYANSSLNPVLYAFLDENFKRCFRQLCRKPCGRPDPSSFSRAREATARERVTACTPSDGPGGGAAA

SMILES | cell viability / cytotoxicity in the NO competition experiments (in words) (Mouse microglia [1]; activated microglia) | inhibition at 10 µM (DOR (δ opioid receptor)) | inhibition at 10 µM (MOR (μ opioid receptor)) | BZR % [2] | Ki [2] | Cell viability (%) Mouse microglia 50 μM (Mouse microglia [1]) | inhibition at 50 µM (Mouse microglia [3]; Mus musculus, Microglia, 24 h) | inhibition at 10 µM (KOR (κ opioid receptor); [3H]-U69593) | Ki (KOR (κ opioid receptor); [4]) | Inhibition of NO production (%) Mouse microglia 50 μM (Mouse microglia [3]; 50 μM, 24 hours, 1 μM GABA, LPS/IFNγ) | Ki (KOR (κ opioid receptor)) | inhibition at 10 µM (Mouse microglia [3]; Mus musculus, Microglia, 24 h)
C[C@@H]1C[C@H]2[C@@H]3CCC4=CC(=O)C=C[C@]4(C)[C@@]3(F)[C@@H](O)C[C@]2(C)[C@@]1(O)C(=O)CO [dexamethasone, reference compound] | without cell toxicity | – | – | – | – | – | – | – | – | – | – | –
C#Cc1ccc2c(c1)C(c1ccccc1F)=NCc1c(-c3cnco3)ncn1-2 [KRM-II-18B] | – | 20% | 11% | 97% | 38 nM | 100 ± 3% | 0% | 89% | 361 nM | – | – | –
C#Cc1ccc2c(c1)C(c1ccccc1F)=NCc1c(C(=O)OCCCOC(=O)c3ncn4c3CN=C(c3ccccc3F)c3cc(C#C)ccc3-4)ncn1-2 [YT-III-271] | – | – | – | – | – | 100 ± 3% | – | – | – | 0 ± 4% | – | –
C#Cc1ccc2c(c1)C(c1ccccc1)=NCc1c(-c3cnco3)ncn1-2 [KRM-II-82] | – | 20% | 5% | 95% | 96 nM | 100 ± 6% | 0% | 78% | 1200 nM | – | – | –
C#Cc1ccc2c(c1)C(c1ccccn1)=NCc1c(-c3nc(CC)no3)ncn1-2 [MP-III-080] | – | 0% | 0% | 88% | 303 nM | 100 ± 14% | 0% | 47% | – | – | – | –
C#Cc1ccc2c(c1)C(c1ccccc1F)=N[C@@H](C)c1c(-c3nc(C)no3)ncn1-2 [GL-I-65, (S)-5-(8-Ethynyl-6-(2-fluorophenyl)-4-methyl-4H-benzo[f]imidazo[1,5-a][1,4]diazepin-3-yl)-3-methyl-1,2,4-oxadiazole] | – | 7% | 2% | 79% | 1150 nM | 100 ± 12% | 19 ± 9% | 88% | – | – | 222 nM | –
C#Cc1ccc2c(c1)C(c1ccccn1)=N[C@H](C)c1c(C(=O)NC)ncn1-2 [GL-II-31] | – | 3% | 17% | 72% | 1700 nM | – | – | 23% | – | – | – | –
C#Cc1ccc2c(c1)C(c1ccccc1F)=N[C@@H](C)c1c(C(=O)OCC(F)(F)F)ncn1-2 [GL-I-36] | – | 0% | 8% | 77% | 418 nM | – | – | 85% | 411 nM | – | – | –
C#Cc1ccc2c(c1)C(c1ccccc1F)=N[C@@H](C)c1c(C(=O)OC(C)(C)CC)ncn1-2 [GL-I-33] | – | 25% | 30% | 96% | 117 nM | – | – | 94% | 34 nM | – | – | –
C#Cc1ccc2c(c1)C(c1ccccc1F)=N[C@@H](C)c1c(-c3nc(CC)no3)ncn1-2 [GL-I-66, (S)-3-Ethyl-5-(8-ethynyl-6-(2-fluorophenyl)-4-methyl-4H-benzo[f]imidazo[1,5-a][1,4]diazepin-3-yl)-1,2,4-oxadiazole] | – | 2% | 28% | 80% | 654 nM | 71 ± 9% | 86 ± 11% | 92% | – | – | 212 nM | 5 ± 2%
C#Cc1ccc2c(c1)C(c1ccccc1F)=N[C@@H](C)c1c(C(=O)NC)ncn1-2 [MP-II-023] | – | 16% | 0% | 97% | 37 nM | – | – | 91% | 119 nM | – | – | –
Cc1ncoc1-c1ncn2c1CN=C(c1ccccc1)c1cc(Br)ccc1-2 [KRM-III-66] | – | 11% | 12% | 86% | 49 nM | – | – | 67% | 756 nM | – | – | –
C#Cc1ccc2c(c1)C(c1ccccn1)=NCc1c(C(=O)O)ncn1-2 [SR-II-54] | – | 1% | 8% | 80% | 69 nM | – | – | 9% | – | – | – | –
